Assay results as given in patent US9862748B2, “Peptide compounds and methods of production and use thereof” (priority 2012, dated 2018).
Where two headings read alike, the source gives them in different places. Square brackets hold non-standard residues; d marks the D form. Ends that are not written are not given here. Peptide text beside a SMILES is read from it. AEEA = NCCOCCOCC(=O)O

Legend:
[1] = tested on: Pseudomonas aeruginosa ATCC® 27853™; assay type: cell-based; set-up: Effects of Peptide Compounds on Pseudomonas aeruginosa ATCC ® 27853 ™: unit not given here; settings: for Effects of Peptide Compounds on Pseudomonas aeruginosa ATCC ® 27853 ™: Table 6; for activity against P. aeruginosa: 120-146WR at 25 μM; for effectiveness against Pseudomonas aeruginosa compared with gentamicin, pH 7.2: peptide at 25 VIM (so in the source)
Experimental: (§1) In vitro bactericidal activity: The three peptide compounds BCC01-5RMP (SEQ ID NO: 21), BCC02-5RMP (SEQ ID NO: 22), and BCC03-5RMP (SEQ ID NO: 23) were assayed for in vitro bactericidal activity against Pseudomonas aeruginosa, Escherichia coli, Salmonella typhimurium, and Acinetobacter baumannii. The starting inoculum for all experiments was 1×10^6 colony forming units (CFU)/ml. The CFU remaining at the end of 60 to 180 minute incubation was determined, and the data plotted as a log reduction in CFU/ml.
(§2) For FIGS. 10-13, in vitro bactericidal assays were performed using a starting inoculum of 1×10^6 CFU/ml of the bacterial suspension. The CFU remaining at the end of the 60-180 minute incubation was determined, and the data was plotted as log reduction in CFU/ml.
(§3) In particular, each of the test peptides (CAP37 peptides 120-146WR, 120-146WH, and 95-122 (SEQ ID NOs: 30, 31, and 26, respectively)) was used at 25, 12.5, 6.25, and 3.12 μM. Gentamicin was used at 4 μg/ml. 1×10^6/ml Acinetobacter baumannii ATCC® BAA-747™ or Pseudomonas aeruginosa ATCC® 27853™ (American Type Culture Collection, Manassas, Va.) were incubated with the peptides, negative buffer control (tryptone saline), and positive control gentamicin at pH 5.5 or 7.2. A 60 minute incubation was used for Acinetobacter baumannii ATCC® BAA-747™, while a 180 minute incubation was used for Pseudomonas aeruginosa ATCC® 27853™. 50 μl aliquots were plated out on agar plates and incubated overnight. Colony forming units were counted after overnight incubation and CFU/ml calculated.
For FIG. 14, 1×10^6/ml Pseudomonas aeruginosa ATCC® 27853™ were incubated with each of the test peptides (CAP37 peptides 120-146WR, 120-146WH, 120-146QR, 120-146QH, 120-146QR-5RMP, and 120-146QH-5RMP (SEQ ID NOs: 30, 31, 28, 29, 32, and 33, respectively)) at 150, 75, and 37.5 μg/ml, or negative buffer control (tryptone saline), for 180 minutes at pH 5.5. 50 μl aliquots were plated out on agar plates and incubated overnight. Colony forming units were counted after overnight incubation and CFU/ml calculated.

[2] = tested on: E. coli ATCC® strain 25922™; assay type: cell-based, Escherichia coli; set-up: unit not given here; settings: Table 6
Experimental: as §1

[3] = tested on: Pseudomonas clinical isolate B64; assay: BIOSCREEN C growth assay / MIC, antibiotic in combination with peptide; assay type: cell-based, P. aeruginosa; settings: for MIC, antibiotic alone: clinical isolate of P. aeruginosa, 1×10^5 CFU/well, 24 hours
Experimental: The peptide and antibiotics were set up in the wells of the microtiter plate at starting ratios of MIC equivalents of antibiotic:peptide at 3:1, 1:1, and 1:3. They were serially diluted to concentrations well below suboptimal/sublethal levels of the antibiotic and peptide. The organism was added (1×10^5 CFU/well), the BIOSCREEN C™ assay (Growth Systems USA, Piscataway, N.J.) was performed, and data was collected over 24 hours.

[4] = tested on: Acinetobacter baumannii ATCC® BAA-747™; assay type: cell-based
Experimental: as §1, §2, §3

swine skin wounds [5] = assay: Swine full thickness excisional dermal wound model, wound area; assay type: in vivo; settings: for Mean Wound Healing (%) Day 0 / Mean Wound Healing (%) Day 3 / Mean Wound Healing (%) Day 5 / Mean Wound Healing (%) Day 7 / Mean Wound Healing (%) Day 10 / Mean Wound Healing (%) Day 14: 3 mg/ml, 0.20 ml per wound, reapplied daily; for dermal wound healing: topical 3 mg/ml over 14 days, vs saline
Experimental: In this Example, peptide compounds of the presently disclosed and claimed inventive concept(s) were evaluated as to their activity on the dermal wound healing process in a clinically relevant swine full thickness excisional wound model. Three different peptide formulations (Group B, Peptide 95-122 (SEQ ID NO: 26); Group C, Peptide 120-146WH (SEQ ID NO: 31); and Group D, Peptide 120-146QH-5RMP (SEQ ID NO: 33)) were each evaluated at the same concentration (3 mg/ml). Sterile saline served as the control (Group A).
(§4) Full thickness excisional wounds were induced on the dorsum of swine (N=3) using a 1.0 cm biopsy punch. Treatments were administered (0.20 ml) to each wound (N=6 wounds per group), and the wounds were dressed with standard occlusive dressing ([…]™, 3M Corporation, St. Paul, Minn.). Treatments were reapplied daily and dressings changed. Clinical wound healing observations and wound area (2 mm) measurements were performed on days 0, 3, 5, 7, 10, and 14 post-wounding. Wound area (2 mm) data were expressed as percentage (%) of wound healing. Animals were terminated on day 14 with wounds harvested and processed for histological evaluation. […] All peptide formulation treatment groups healed faster with greater rate of closure and re-epithelialization over time, as compared to the saline control (Group A).

swine skin wounds [6] = assay: Swine dermal wound model, histological evaluation; assay type: in vivo; settings: day 14 post-wounding; for Histopathology Results, Mean Angiogenesis / Histopathology Results, Mean Epithelization / Histopathology Results, Mean Granulation / Histopathology Results, Mean Inflammation: 3 mg/ml
Experimental: The characteristics that were measured are required to indicate features of a well-healed wound. Inflammation should be low and re-epithelialization high.
as §4
The histology correlated with the clinical observations. […] There were minimal differences in the amount or character of granulation tissue, inflammation, and angiogenesis. All the wounds were well filled and vascularized.

[7] = tested on: mouse cornea (corneal epithelial abrasion); assay: In vivo model of corneal wound healing; settings: treated at 0 and 16 hours; 95-122 10^−5 M; 120-146WH 10^−8 M or 10^−6 M; HB-EGF 250 ng/ml
Experimental: The in vivo model of wound healing was carried out using a disposable biopsy punch (2 mm, Miltex, York, Pa.) to demarcate the mouse cornea and a 0.5 mm burr using the AlgerBrush II (The Alger Company, Inc., Lago Vista, Tex.) to remove the corneal epithelium.
Mice were anesthetized using ketamine (100 mg/kg; Bionichepharma, LLC., St. Lake Forrest, Ill.) and xylazine ([…]; Rompun; Bayer Corp., Shawnee Mission, Kans.), and the right cornea was wounded as follows. A disposable biopsy punch (2 mm, Miltex, York, Pa.) was used to demarcate the mouse cornea. The corneal epithelium was carefully removed within the 2 mm demarcated area with a 0.5 mm burr using the AlgerBrush II (The Alger Company, Inc., Lago Vista, Tex.). The corneal abrasions were treated at 0 and 16 hours with HB-EGF (250 ng/ml), rCAP37 (250 ng/ml), or vehicle control (0.9% sodium chloride, pH 5.5, Baxter, Deerfield, Ill.). Corneal abrasions were visualized using sterile fluorescein sodium ophthalmic strips USP (FLUORETS®, Chauvin Laboratory, Aubenas, France) dampened with sterile PBS. Images were taken at 0, 16, 24, and 48 hours immediately following fluorescein staining using a surgical microscope equipped with a camera (Carl Zeiss OPMI VISU 140, Carl Zeiss Surgical, Inc., Oberkochen, Germany). The areas of the open wound were quantitated using ImageJ software (US National Institutes of Health), and the results were reported as the percentage of wound closure.
Whole mouse eyes were collected for histology at 0, 6, 16, 24, and 48 hours post wounding and were immediately placed in Prefer fixative (Anatech LTD., Battle Creek, Mich.) for 20 minutes before being transferred to 70% ethanol. Tissues were paraffin-embedded and cut at a thickness of 5 μm, mounted on SUPERFROSTPLUS® slides (Statlab Medical Products, Lewisville, Tex.), and subsequently deparaffinized, rehydrated, and washed in deionized water. Sections were stained with hematoxylin (Leica Microsystems, Buffalo Grove, Ill.) and rinsed twice in deionized water before being washed in Blue Buffer (Leica Microsystems). The sections were finally washed in deionized water and 95% ethanol prior to being counterstained with eosin (Leica Microsystems). Sections were dehydrated in ethanol and cleared in xylene.

RRRRNQGRHFCGGALIHARFVMTAASCFQR (5-arginine peptide derivative of CAP37 peptide) [SEQ ID NO: 18 (Linear)]
Effects of Peptide Compounds on Pseudomonas aeruginosa ATCC ® 27853 ™ ([1]; Peptide Conc 87.6 μg/ml): 100.0 | Effects of Peptide Compounds on Escherichia coli ATCC ® 25922 ™ ([2]; Peptide Conc 262.8 μg/ml): 100.0

CO/N=C(\C(=O)N[C@@H]1C(=O)N2C(C(=O)O)=C(COC(C)=O)CS[C@H]12)c1csc(N)n1 [Cefotaxime, reference compound]
bactericidal impact of antibiotic alone at sublethal concentration ([3]; 2.8 μg/ml of Cefotaxime): very little bactericidal impact | MIC, antibiotic alone [3]: 15 µg/mL

GTRCQVAGWGSWRSGGRLSRFPRFVNV [Peptide 120-146WR]
activity against P. aeruginosa ([1]; gentamicin 4 μg/ml): highly active | effectiveness against Pseudomonas aeruginosa compared with gentamicin, pH 7.2 ([1]; gentamicin 4 μg/ml): as effective as the standard antibiotic gentamicin | activity against A. baumannii at 12.5 μM ([4]; 12.5 μM): highly active | activity against A. baumannii at 25 μM [4]: highly active

RRRRNQGRHFCGGALIHARFVMTAASCFQR (not fully specified; cysteine pairing not given here) [SEQ ID NO: 18 (Cyclized)]
Effects of Peptide Compounds on Pseudomonas aeruginosa ATCC ® 27853 ™ ([1]; Peptide Conc 3.125 μg/ml): 100.0 | Effects of Peptide Compounds on Pseudomonas aeruginosa ATCC ® 27853 ™ ([1]; Peptide Conc 6.25 μg/ml): 100.0 | Effects of Peptide Compounds on Pseudomonas aeruginosa ATCC ® 27853 ™ ([1]; Peptide Conc 12.5 μg/ml): 100.0 | Effects of Peptide Compounds on Pseudomonas aeruginosa ATCC ® 27853 ™ ([1]; Peptide Conc 25 μg/ml): 100.0 | Effects of Peptide Compounds on Pseudomonas aeruginosa ATCC ® 27853 ™ ([1]; Peptide Conc 50 μg/ml): 100.0 | Effects of Peptide Compounds on Pseudomonas aeruginosa ATCC ® 27853 ™ ([1]; Peptide Conc 100 μg/ml): 100.0 | Effects of Peptide Compounds on Pseudomonas aeruginosa ATCC ® 27853 ™ ([1]; Peptide Conc 200 μg/ml): 100.0 | Effects of Peptide Compounds on Pseudomonas aeruginosa ATCC ® 27853 ™ ([1]; Peptide Conc 400 μg/ml): 100.0 | Effects of Peptide Compounds on Escherichia coli ATCC ® 25922 ™ ([2]; Peptide Conc 25 μg/ml): 38.0 | Effects of Peptide Compounds on Escherichia coli ATCC ® 25922 ™ ([2]; Peptide Conc 400 μg/ml): 82.0

CC(C)C[C@H](NC(=O)[C@H](CCCNC(=N)N)NC(=O)CNC(=O)CNC(=O)[C@H](CO)NC(=O)[C@H](Cc1c[nH]cn1)NC(=O)[C@H](CCC(N)=O)NC(=O)[C@H](CO)NC(=O)CNC(=O)[C@H](Cc1c[nH]c2ccccc12)NC(=O)CNC(=O)[C@H](C)NC(=O)[C@@H](NC(=O)[C@H](CCC(N)=O)NC(=O)[C@H](CS)NC(=O)[C@H](CCCNC(=N)N)NC(=O)[C@@H](NC(=O)CNC(=O)[C@H](CCCNC(=N)N)NC(=O)[C@H](CCCNC(=N)N)NC(=O)[C@H](CCCNC(=N)N)NC(=O)[C@H](CCCNC(=N)N)NC(=O)COCCOCCNC(=O)COCCOCCN)[C@@H](C)O)C(C)C)C(=O)N[C@@H](CO)C(=O)N[C@@H](CCCNC(=N)N)C(=O)N[C@@H](Cc1ccccc1)C(=O)N1CCC[C@H]1C(=O)N[C@@H](CCCNC(=N)N)C(=O)N[C@@H](Cc1ccccc1)C(=O)N[C@H](C(=O)N[C@@H](CC(N)=O)C(=O)N[C@H](C(=O)N[C@@H](CCCNC(=N)N)C(=O)O)C(C)C)C(C)C [120-146QH-5RMP] (H-[AEEA][AEEA]RRRRGTRCQVAGWGSQHSGGRLSRFPRFVNVR-OH; N-terminus and C-terminus assumed)
Mean Wound Healing (%) Day 0 (swine skin wounds [5]): 0.0% | Mean Wound Healing (%) Day 3 (swine skin wounds [5]): 22.5% | Mean Wound Healing (%) Day 5 (swine skin wounds [5]): 34.1% | Mean Wound Healing (%) Day 7 (swine skin wounds [5]): 64.1% | Mean Wound Healing (%) Day 10 (swine skin wounds [5]): 93.7% | Mean Wound Healing (%) Day 14 (swine skin wounds [5]): 98.0% | dermal wound healing (swine skin wounds [5]): accelerate dermal wound healing | epidermal resurfacing and maturation of the epidermis versus saline control (swine skin wounds [6]): greater extent of epidermal resurfacing and maturation of the epidermis | Histopathology Results, Mean Angiogenesis (swine skin wounds [6]): 1.3 | Histopathology Results, Mean Epithelization (swine skin wounds [6]): 4.0 | Histopathology Results, Mean Granulation (swine skin wounds [6]): 4.0 | Histopathology Results, Mean Inflammation (swine skin wounds [6]): 0.5

C[C@H]1COc2c(N3CCN(C)CC3)c(F)cc3c(=O)c(C(=O)O)cn1c23 [Levofloxacin, reference compound]
MIC, antibiotic alone [3]: 15 µg/mL

GTRCQVAGWGSWHSGGRLSRFPRFVNV [Peptide 120-146WH]
effectiveness against Pseudomonas aeruginosa compared with gentamicin, pH 7.2 ([1]; gentamicin 4 μg/ml): as effective as the standard antibiotic gentamicin | activity against A. baumannii at 25 μM [4]: highly active | corneal wound healing versus vehicle [7]: significantly greater | Mean Wound Healing (%) Day 0 (swine skin wounds [5]): 0.0% | Mean Wound Healing (%) Day 3 (swine skin wounds [5]): 22.1% | Mean Wound Healing (%) Day 5 (swine skin wounds [5]): 35.9% | Mean Wound Healing (%) Day 7 (swine skin wounds [5]): 59.7% | Mean Wound Healing (%) Day 10 (swine skin wounds [5]): 93.5% | Mean Wound Healing (%) Day 14 (swine skin wounds [5]): 97.5% | dermal wound healing (swine skin wounds [5]): accelerate dermal wound healing | epidermal resurfacing and maturation of the epidermis versus saline control (swine skin wounds [6]): greater extent of epidermal resurfacing and maturation of the epidermis | Histopathology Results, Mean Angiogenesis (swine skin wounds [6]): 1.7 | Histopathology Results, Mean Epithelization (swine skin wounds [6]): 3.7 | Histopathology Results, Mean Granulation (swine skin wounds [6]): 4.0 | Histopathology Results, Mean Inflammation (swine skin wounds [6]): 0.5

gentamicin [reference compound]
activity against P. aeruginosa ([1]; gentamicin 4 μg/ml): highly active | log reduction of CFU/ml, Pseudomonas aeruginosa, pH 5.5 ([1]; gentamicin 4 μg/ml, 180 minutes, FIG. 13): 2 log | activity against Acinetobacter baumannii at pH 5.5 ([4]; gentamicin 4 μg/ml, 60 minutes): unable to kill the bacteria | activity against Acinetobacter baumannii at pH 7.2 ([4]; gentamicin 4 μg/ml, 60 minutes): active against the bacteria
